Our source for the IC50 values is patent publication US20140163023A1, “DIHYDROPYRROLO PYRIMIDINE DERIVATIVES AS MTOR INHIBITORS” (Cellzome Limited, priority 2011, published 2014).

Structures can show the parent of a compound that is named as a salt.

One assay concerns the target T1, mTOR (Homo sapiens, UniProt P42345).
T1 construct: endogenous in cells; host or cells: Jurkat (ATCC TIB-152, clone E6-1) and Ramos (ATCC CRL-1596), 1:1 lysate mix
The assay is described as follows: mTOR kinobeads assay (competition binding in cell lysate, dot blot detection). Conditions: 1:1 mix of Jurkat and Ramos cell lysates, read-out: Inhibition values (IC50 in μM) as determined in the kinobeads assay, mTor. In outline: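 Competition binding in a 1:1 mix of Jurkat and Ramos cell lysates at 5 mg/ml total protein, with compounds in a 1:3 dilution series and an affinity matrix of two immobilized ligands, 2 h in the cold with shaking. mTOR captured on the beads was eluted and quantified by antibody dot blot with infrared detection. IC50 came from dose-response curves.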

Another assay deals with T2, PI3Kα (Homo sapiens, UniProt P42336).
T2 construct: endogenous in cells; host or cells: Jurkat (ATCC TIB-152, clone E6-1) and Ramos (ATCC CRL-1596), 1:1 lysate mix
T2 sequence (P42336 whole entry): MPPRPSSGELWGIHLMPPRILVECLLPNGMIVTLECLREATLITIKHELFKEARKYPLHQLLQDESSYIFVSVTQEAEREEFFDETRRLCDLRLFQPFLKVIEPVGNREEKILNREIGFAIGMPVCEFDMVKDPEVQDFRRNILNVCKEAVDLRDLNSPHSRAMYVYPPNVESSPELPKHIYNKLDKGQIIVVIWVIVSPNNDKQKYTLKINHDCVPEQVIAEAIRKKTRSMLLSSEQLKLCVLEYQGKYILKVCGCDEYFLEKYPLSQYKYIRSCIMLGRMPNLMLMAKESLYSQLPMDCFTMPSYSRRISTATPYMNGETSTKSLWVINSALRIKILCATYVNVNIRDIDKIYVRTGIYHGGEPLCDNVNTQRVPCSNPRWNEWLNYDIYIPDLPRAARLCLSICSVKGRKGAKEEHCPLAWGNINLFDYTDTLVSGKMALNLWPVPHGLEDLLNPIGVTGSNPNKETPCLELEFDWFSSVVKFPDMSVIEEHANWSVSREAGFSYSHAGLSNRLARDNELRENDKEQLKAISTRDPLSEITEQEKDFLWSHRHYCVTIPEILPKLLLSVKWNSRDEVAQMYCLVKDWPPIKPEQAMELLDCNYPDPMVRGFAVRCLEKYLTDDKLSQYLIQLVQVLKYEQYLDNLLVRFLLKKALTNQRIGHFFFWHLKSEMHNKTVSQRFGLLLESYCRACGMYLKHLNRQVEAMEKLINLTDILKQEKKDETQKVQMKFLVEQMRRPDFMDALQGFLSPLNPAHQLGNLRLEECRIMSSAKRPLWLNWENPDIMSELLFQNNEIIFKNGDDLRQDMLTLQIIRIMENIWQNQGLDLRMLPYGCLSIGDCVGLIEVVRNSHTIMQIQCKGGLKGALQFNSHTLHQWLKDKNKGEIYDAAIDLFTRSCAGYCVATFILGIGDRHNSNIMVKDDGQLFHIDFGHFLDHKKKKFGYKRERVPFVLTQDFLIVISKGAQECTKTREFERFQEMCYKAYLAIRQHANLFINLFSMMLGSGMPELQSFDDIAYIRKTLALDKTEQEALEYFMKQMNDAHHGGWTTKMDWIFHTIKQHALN
T2 sequence (P27986 whole entry partner): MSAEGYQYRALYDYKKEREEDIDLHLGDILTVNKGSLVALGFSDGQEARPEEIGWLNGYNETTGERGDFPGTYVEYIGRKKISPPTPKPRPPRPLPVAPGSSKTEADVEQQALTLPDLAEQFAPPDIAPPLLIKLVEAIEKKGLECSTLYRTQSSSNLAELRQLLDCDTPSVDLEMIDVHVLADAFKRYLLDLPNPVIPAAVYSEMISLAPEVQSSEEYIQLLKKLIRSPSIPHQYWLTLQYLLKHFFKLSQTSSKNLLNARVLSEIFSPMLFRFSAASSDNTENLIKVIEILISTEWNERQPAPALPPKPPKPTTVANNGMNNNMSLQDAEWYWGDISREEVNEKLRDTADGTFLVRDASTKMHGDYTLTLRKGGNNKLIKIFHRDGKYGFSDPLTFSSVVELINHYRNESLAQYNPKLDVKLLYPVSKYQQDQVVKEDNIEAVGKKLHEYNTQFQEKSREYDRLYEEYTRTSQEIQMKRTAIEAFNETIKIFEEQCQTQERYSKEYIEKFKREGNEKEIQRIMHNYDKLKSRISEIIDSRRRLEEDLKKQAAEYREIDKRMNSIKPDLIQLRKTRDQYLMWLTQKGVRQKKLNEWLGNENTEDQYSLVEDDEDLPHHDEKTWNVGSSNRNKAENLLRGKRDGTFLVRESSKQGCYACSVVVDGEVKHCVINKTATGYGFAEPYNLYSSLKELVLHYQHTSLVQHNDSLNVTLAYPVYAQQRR
The assay is described as follows: kinobeads assay, PI3Kα. In kind it is binding. Conditions: 1:1 mix of Jurkat and Ramos cell lysates, read-out: Inhibition values (IC50 in μM) as determined in the kinobeads assay, PI3Kα. In outline: (§1)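 Inhibitor at serial dilutions (1:3, 9 steps) competed for binding to an affinity matrix of two immobilized ligands in a 1:1 Jurkat/Ramos lysate at 5 mg/ml protein, 2 h in a cold room. Bound kinases were eluted, quantified by antibody dot blot with infrared detection, and IC50 was taken from dose-response curves.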

Assay [1] concerns the target T3, DNA-dependent protein kinase (DNA-PK) (Homo sapiens, UniProt P78527).
T3 construct: endogenous in cells; host or cells: Jurkat (ATCC TIB-152, clone E6-1) and Ramos (ATCC CRL-1596), 1:1 lysate mix
The assay is described as follows: kinobeads assay, DNA-PK. The settings on record: 1:1 mix of Jurkat and Ramos cell lysates, read-out: Inhibition values (IC50 in μM) as determined in the kinobeads assay, DNA-PK. In kind it is binding. The method in brief:
as §1

The next assay addresses T4, PI3Kγ (Homo sapiens, UniProt P48736).
T4 construct: endogenous in cells; host or cells: Jurkat (ATCC TIB-152, clone E6-1) and Ramos (ATCC CRL-1596), 1:1 lysate mix
The assay is described as follows: kinobeads assay, PI3Kγ. In kind it is binding. Conditions: 1:1 mix of Jurkat and Ramos cell lysates, read-out: Inhibition values (IC50 in μM) as determined in the kinobeads assay, PI3Kγ. The method in brief:
as §1

In the next assay the target is T5, PI3Kδ (Homo sapiens, UniProt O00329).
T5 construct: endogenous in cells; host or cells: Jurkat (ATCC TIB-152, clone E6-1) and Ramos (ATCC CRL-1596), 1:1 lysate mix
T5 sequence (O00329 whole entry): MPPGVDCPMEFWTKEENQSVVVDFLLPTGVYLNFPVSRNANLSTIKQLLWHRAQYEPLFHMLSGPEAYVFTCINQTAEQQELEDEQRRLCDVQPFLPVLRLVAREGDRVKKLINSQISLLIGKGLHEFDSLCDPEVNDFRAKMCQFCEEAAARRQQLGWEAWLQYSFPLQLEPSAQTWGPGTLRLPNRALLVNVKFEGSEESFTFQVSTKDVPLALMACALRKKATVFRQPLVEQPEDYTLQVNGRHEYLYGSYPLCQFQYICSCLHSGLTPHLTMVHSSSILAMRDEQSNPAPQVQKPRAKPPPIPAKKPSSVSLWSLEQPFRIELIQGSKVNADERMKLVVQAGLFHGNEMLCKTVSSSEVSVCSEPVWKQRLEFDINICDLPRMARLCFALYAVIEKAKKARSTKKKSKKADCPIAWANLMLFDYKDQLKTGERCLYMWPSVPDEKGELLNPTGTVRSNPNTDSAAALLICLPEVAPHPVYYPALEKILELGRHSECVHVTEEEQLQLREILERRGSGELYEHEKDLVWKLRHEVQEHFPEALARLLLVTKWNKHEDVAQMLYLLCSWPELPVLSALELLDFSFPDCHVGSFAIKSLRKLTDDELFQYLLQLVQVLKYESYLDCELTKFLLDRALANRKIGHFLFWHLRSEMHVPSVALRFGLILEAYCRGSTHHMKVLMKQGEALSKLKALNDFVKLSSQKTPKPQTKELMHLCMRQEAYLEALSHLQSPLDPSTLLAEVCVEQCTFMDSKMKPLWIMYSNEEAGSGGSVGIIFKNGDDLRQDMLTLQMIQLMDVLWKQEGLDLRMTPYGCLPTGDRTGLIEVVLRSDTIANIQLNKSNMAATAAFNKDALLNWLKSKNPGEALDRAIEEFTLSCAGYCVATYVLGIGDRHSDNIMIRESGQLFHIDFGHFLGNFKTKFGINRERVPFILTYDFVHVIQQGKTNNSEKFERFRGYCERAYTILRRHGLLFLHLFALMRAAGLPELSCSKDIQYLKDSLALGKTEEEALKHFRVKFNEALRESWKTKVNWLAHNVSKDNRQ
T5 sequence (P27986 whole entry partner): as the sequence (P27986 whole entry partner) above
The assay is described as follows: kinobeads assay, PI3Kδ. In kind it is binding. Conditions: 1:1 mix of Jurkat and Ramos cell lysates, read-out: Inhibition values (IC50 in μM) as determined in the kinobeads assay, PI3Kδ. The method in brief:
as §1

A further assay addresses T6, PI3Kβ (Homo sapiens, UniProt P42338).
T6 construct: endogenous in cells; host or cells: Jurkat (ATCC TIB-152, clone E6-1) and Ramos (ATCC CRL-1596), 1:1 lysate mix
The assay is described as follows: kinobeads assay, PI3Kβ. In kind it is binding. The settings on record: 1:1 mix of Jurkat and Ramos cell lysates, read-out: Inhibition values (IC50 in μM) as determined in the kinobeads assay, PI3Kβ. In outline:
as §1

T6 sequence (P42338 whole entry): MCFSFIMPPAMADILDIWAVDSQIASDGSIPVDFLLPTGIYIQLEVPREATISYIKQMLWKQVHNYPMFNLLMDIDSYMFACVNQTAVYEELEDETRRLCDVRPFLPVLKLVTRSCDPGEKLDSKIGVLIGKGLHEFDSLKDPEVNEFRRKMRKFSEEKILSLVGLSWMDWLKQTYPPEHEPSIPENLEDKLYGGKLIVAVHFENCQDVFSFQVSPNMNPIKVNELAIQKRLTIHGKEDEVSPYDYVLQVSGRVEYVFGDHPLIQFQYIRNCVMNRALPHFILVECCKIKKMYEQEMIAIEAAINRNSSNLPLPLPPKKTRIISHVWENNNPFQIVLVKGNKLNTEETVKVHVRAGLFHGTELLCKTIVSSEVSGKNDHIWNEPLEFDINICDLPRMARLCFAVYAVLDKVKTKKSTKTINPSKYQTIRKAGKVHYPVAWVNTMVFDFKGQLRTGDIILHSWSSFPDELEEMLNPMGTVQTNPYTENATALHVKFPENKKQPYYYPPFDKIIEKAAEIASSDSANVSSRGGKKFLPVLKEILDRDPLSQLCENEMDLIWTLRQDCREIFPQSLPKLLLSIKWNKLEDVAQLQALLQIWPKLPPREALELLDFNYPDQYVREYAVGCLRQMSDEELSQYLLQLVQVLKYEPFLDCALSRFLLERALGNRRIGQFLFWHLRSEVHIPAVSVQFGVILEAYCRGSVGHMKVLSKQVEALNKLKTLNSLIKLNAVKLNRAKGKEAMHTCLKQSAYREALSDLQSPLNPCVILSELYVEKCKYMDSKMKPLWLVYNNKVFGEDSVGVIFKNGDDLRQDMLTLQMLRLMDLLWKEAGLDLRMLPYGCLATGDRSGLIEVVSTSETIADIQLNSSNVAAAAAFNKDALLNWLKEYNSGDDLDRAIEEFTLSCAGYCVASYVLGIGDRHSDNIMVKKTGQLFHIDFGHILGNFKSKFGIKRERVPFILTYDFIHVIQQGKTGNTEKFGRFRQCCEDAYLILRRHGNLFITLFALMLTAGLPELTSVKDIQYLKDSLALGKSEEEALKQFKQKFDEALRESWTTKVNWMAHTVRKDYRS
T6 sequence (P27986 whole entry partner): as the sequence (P27986 whole entry partner) above
T4 sequence (P48736 whole entry): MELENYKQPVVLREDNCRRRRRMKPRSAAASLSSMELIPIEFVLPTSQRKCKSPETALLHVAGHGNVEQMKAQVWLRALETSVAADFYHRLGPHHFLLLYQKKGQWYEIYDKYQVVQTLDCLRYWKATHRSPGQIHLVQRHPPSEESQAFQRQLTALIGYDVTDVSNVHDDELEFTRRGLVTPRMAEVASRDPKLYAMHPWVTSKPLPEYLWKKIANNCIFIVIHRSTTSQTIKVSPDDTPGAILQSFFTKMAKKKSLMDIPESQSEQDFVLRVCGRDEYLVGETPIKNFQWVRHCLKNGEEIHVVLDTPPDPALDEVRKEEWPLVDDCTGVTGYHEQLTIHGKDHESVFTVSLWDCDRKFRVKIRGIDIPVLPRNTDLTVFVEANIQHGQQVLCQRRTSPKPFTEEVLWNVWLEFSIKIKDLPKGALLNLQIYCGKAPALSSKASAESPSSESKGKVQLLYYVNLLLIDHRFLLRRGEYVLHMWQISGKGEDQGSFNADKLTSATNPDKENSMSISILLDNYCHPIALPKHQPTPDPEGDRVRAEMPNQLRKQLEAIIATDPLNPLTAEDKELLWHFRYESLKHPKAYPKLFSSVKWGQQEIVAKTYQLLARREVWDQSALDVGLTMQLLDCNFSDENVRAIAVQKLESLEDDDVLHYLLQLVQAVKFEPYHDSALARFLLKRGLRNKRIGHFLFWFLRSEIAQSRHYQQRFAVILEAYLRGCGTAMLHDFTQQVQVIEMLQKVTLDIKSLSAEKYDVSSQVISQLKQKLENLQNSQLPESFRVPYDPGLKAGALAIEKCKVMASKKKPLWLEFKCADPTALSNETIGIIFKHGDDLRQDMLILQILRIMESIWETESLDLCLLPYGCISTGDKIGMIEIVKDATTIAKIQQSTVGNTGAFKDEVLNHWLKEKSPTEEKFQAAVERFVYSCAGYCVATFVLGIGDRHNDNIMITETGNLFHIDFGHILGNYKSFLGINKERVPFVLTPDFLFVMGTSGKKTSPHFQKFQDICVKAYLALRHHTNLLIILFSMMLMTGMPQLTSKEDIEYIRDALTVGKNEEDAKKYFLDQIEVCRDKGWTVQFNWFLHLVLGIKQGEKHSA

Broadly, the IC50 is the concentration at which inhibition is half-maximal. `C[C@H]1COCCN1c1nc2c(c(-c3ccc(NC(=O)NC4CC4)cc3)n1)CN(S(=O)(=O)C1CC1)C2` [Example 35, (S)-1-cyclopropyl-3-(4-(6-(cyclopropylsulfonyl)-2-(3-methylmorpholino)-6,7-dihydro-5H-pyrrolo[3,4-d]pyrimidin-4-yl)phenyl)urea]: the IC50 is 1 to 10 µM on mTOR; > 100 µM at PI3Kα; > 100 µM in assay [1]; > 100 µM at PI3Kγ; > 100 µM at PI3Kδ; > 100 µM at PI3Kβ.
For the compound `C[C@H]1COCCN1c1nc2c(c(-c3ccc(NC(=O)NCCO)cc3)n1)CN(S(C)(=O)=O)C2` [Example 36, (S)-1-(2-hydroxyethyl)-3-(4-(2-(3-methylmorpholino)-6-(methylsulfonyl)-6,7-dihydro-5H-pyrrolo[3,4-d]pyrimidin-4-yl)phenyl)urea], the IC50 at mTOR is 0.1 to 1 µM; on PI3Kα, 10 to 100 µM; in assay [1], > 100 µM; on PI3Kγ, 1 to 10 µM; at PI3Kδ, 10 to 100 µM; on PI3Kβ it was 10 to 100 µM.
As for `CCNC(=O)N1Cc2nc(N3CCOC[C@@H]3C)nc(-c3ccc(NC(=O)NCCO)cc3)c2C1` [Example 37, (S)—N-ethyl-4-(4-(3-(2-hydroxyethyl)ureido)phenyl)-2-(3-methylmorpholino)-5H-pyrrolo[3,4-d]pyrimidine-6(7H)-carboxamide], the IC50 at mTOR fell in the range of 0.1 to 1 µM; at PI3Kα, 1 to 10 µM; in assay [1] it was 10 to 100 µM; on PI3Kγ, 10 to 100 µM; at PI3Kδ, 10 to 100 µM; on PI3Kβ, 10 to 100 µM.
`C[C@H]1COCCN1c1nc2c(c(-c3ccc(NC(=O)NCCO)cc3)n1)CN(C1CCCCC1)C2` [Example 38, (S)-1-(4-(6-cyclohexyl-2-(3-methylmorpholino)-6,7-dihydro-5H-pyrrolo[3,4-d]pyrimidin-4-yl)phenyl)-3-(2-hydroxyethyl)urea]: the IC50 at mTOR was 1 to 10 µM; at PI3Kα it was > 100 µM; in assay [1], > 100 µM; on PI3Kγ, > 100 µM; on PI3Kδ it was > 100 µM; on PI3Kβ it was > 100 µM.
Consider `CC(=O)N1Cc2nc(N3CCOC[C@@H]3C)nc(-c3ccc(NC(=O)NCCO)cc3)c2C1` [Example 39, (S)-1-(4-(6-acetyl-2-(3-methylmorpholino)-6,7-dihydro-5H-pyrrolo[3,4-d]pyrimidin-4-yl)phenyl)-3-(2-hydroxyethyl)urea], for which the IC50 on mTOR was 0.1 to 1 µM; on PI3Kα it was 10 to 100 µM; in assay [1] it was 10 to 100 µM; at PI3Kγ, 10 to 100 µM; on PI3Kδ it was 1 to 10 µM; on PI3Kβ, 10 to 100 µM.
With `C[C@H]1COCCN1c1nc2c(c(-c3ccc(NC(=O)NC4CC4)cc3)n1)CN(C(=O)C1CCOC1)C2` (stereo partly drawn) [Example 40, 1-cyclopropyl-3-(4-(2-((S)-3-methylmorpholino)-6-(tetrahydrofuran-3-carbonyl)-6,7-dihydro-5H-pyrrolo[3,4-d]pyrimidin-4-yl)phenyl)urea 2,2,2-trifluoroacetate], the IC50 is 1 to 10 µM on mTOR; 10 to 100 µM on PI3Kα; > 100 µM in assay [1]; > 100 µM at PI3Kγ; 10 to 100 µM on PI3Kδ; 10 to 100 µM at PI3Kβ.
`C[C@H]1COCCN1c1nc2c(c(-c3ccc(NC(=O)NC4CC4)cc3)n1)CN(C(=O)C1CCCN1)C2` (stereo partly drawn) [Example 41, 1-cyclopropyl-3-(4-(2-((S)-3-methylmorpholino)-6-(pyrrolidine-2-carbonyl)-6,7-dihydro-5H-pyrrolo[3,4-d]pyrimidin-4-yl)phenyl)urea hydrochloride]: the IC50 was 1 to 10 µM on mTOR; 10 to 100 µM at PI3Kα; > 100 µM in assay [1]; 10 to 100 µM on PI3Kγ; 10 to 100 µM on PI3Kδ; 10 to 100 µM at PI3Kβ.
Consider `C[C@H]1COCCN1c1nc2c(c(-c3ccc(NC(=O)NC4CC4)cc3)n1)CN(C(N)=O)C2` [Example 42, (S)-4-(4-(3-cyclopropylureido)phenyl)-2-(3-methylmorpholino)-5H-pyrrolo[3,4-d]pyrimidine-6(7H)-carboxamide 2,2,2-trifluoroacetate], for which the IC50 on mTOR was 0.1 to 1 µM; on PI3Kα, 10 to 100 µM; in assay [1], > 100 µM; at PI3Kγ, > 100 µM; at PI3Kδ, 10 to 100 µM; on PI3Kβ, 10 to 100 µM.
Consider `O=C(NCCO)Nc1ccc(-c2nc(N3CC4CCC(C3)O4)nc3c2CNC3)cc1` [Example 43, 1-(4-(2-(8-oxa-3-azabicyclo[3.2.1]octan-3-yl)-6,7-dihydro-5H-pyrrolo[3,4-d]pyrimidin-4-yl)phenyl)-3-(2-hydroxyethyl)urea hydrochloride], for which the IC50 at mTOR was ≤ 0.1 µM; at PI3Kα, > 100 µM; in assay [1], 1 to 10 µM; at PI3Kγ, > 100 µM; on PI3Kδ, > 100 µM; at PI3Kβ, > 100 µM.
On to `CCNC(=O)Nc1ccc(-c2nc(N3CC4CCC(C3)O4)nc3c2CNC3)cc1` [Example 44, 1-(4-(2-(8-oxa-3-azabicyclo[3.2.1]octan-3-yl)-6,7-dihydro-5H-pyrrolo[3,4-d]pyrimidin-4-yl)phenyl)-3-ethylurea hydrochloride], for which the IC50 on mTOR was 0.1 to 1 µM; at PI3Kα, > 100 µM; in assay [1], 10 to 100 µM; at PI3Kγ, > 100 µM; on PI3Kδ, 10 to 100 µM; on PI3Kβ, 10 to 100 µM.
In the case of `CC(O)CNC(=O)Nc1ccc(-c2nc(N3CCOC[C@@H]3C)nc3c2CN(C(C)C)C3)cc1` (stereo partly drawn) [Example 45, 1-(2-hydroxypropyl)-3-(4-(6-isopropyl-2-((S)-3-methylmorpholino)-6,7-dihydro-5H-pyrrolo[3,4-d]pyrimidin-4-yl)phenyl)urea], the IC50 at mTOR is 1 to 10 µM; on PI3Kα, 10 to 100 µM; in assay [1], > 100 µM; at PI3Kγ, > 100 µM; on PI3Kδ, > 100 µM; at PI3Kβ, > 100 µM.
As for `CCNC(=O)Nc1ccc(-c2nc(N3CCOC[C@@H]3C)nc3c2CN(C(C)C)C3)cc1` [Example 46, (S)-1-ethyl-3-(4-(6-isopropyl-2-(3-methylmorpholino)-6,7-dihydro-5H-pyrrolo[3,4-d]pyrimidin-4-yl)phenyl)urea 2,2,2-trifluoroacetate], the IC50 is 1 to 10 µM on mTOR; > 100 µM at PI3Kα; > 100 µM in assay [1]; > 100 µM at PI3Kγ; > 100 µM at PI3Kδ; > 100 µM at PI3Kβ.
Regarding `C[C@H]1COCCN1c1nc2c(c(-c3ccc(NC(=O)NC4CC4)cc3)n1)CN(C(=O)CN1CCOCC1)C2` [Example 47, (S)-1-cyclopropyl-3-(4-(2-(3-methylmorpholino)-6-(2-morpholinoacetyl)-6,7-dihydro-5H-pyrrolo[3,4-d]pyrimidin-4-yl)phenyl)urea 2,2,2-trifluoroacetate], the IC50 is 1 to 10 µM on mTOR; > 100 µM at PI3Kα; > 100 µM in assay [1]; > 100 µM on PI3Kγ; > 100 µM at PI3Kδ; 10 to 100 µM at PI3Kβ.
Turning to `CC(C)CN1Cc2nc(N3CC4CCC(C3)O4)nc(-c3ccc(NC(=O)NCCO)cc3)c2C1` [Example 48, 1-(4-(2-(8-oxa-3-azabicyclo[3.2.1]octan-3-yl)-6-isobutyl-6,7-dihydro-5H-pyrrolo[3,4-d]pyrimidin-4-yl)phenyl)-3-(2-hydroxyethyl)urea 2,2,2-trifluoroacetate], the IC50 was 1 to 10 µM on mTOR; > 100 µM on PI3Kα; > 100 µM in assay [1]; > 100 µM at PI3Kγ; > 100 µM on PI3Kδ; > 100 µM on PI3Kβ.
For `CCNC(=O)Nc1ccc(-c2nc(N3CC4CCC(C3)O4)nc3c2CN(C(C)C)C3)cc1` [Example 49, 1-(4-(2-(8-oxa-3-azabicyclo[3.2.1]octan-3-yl)-6-isopropyl-6,7-dihydro-5H-pyrrolo[3,4-d]pyrimidin-4-yl)phenyl)-3-ethylurea 2,2,2-trifluoroacetate], the IC50 is 1 to 10 µM at mTOR; > 100 µM at PI3Kα; > 100 µM in assay [1]; > 100 µM at PI3Kγ; > 100 µM at PI3Kδ; > 100 µM on PI3Kβ.
As for `CS(=O)(=O)N1Cc2nc(N3CC4CCC(C3)O4)nc(-c3ccc(NC(=O)NC4CC4)cc3)c2C1` [Example 50, 1-(4-(2-(8-oxa-3-azabicyclo[3.2.1]octan-3-yl)-6-(methylsulfonyl)-6,7-dihydro-5H-pyrrolo[3,4-d]pyrimidin-4-yl)phenyl)-3-cyclopropylurea], the IC50 is 1 to 10 µM at mTOR; > 100 µM at PI3Kα; > 100 µM in assay [1]; > 100 µM at PI3Kγ; > 100 µM on PI3Kδ; > 100 µM at PI3Kβ.
